Where a name gives a salt, the structure may show the parent alone.
These compounds were tested against T1, Human 5-HT2C receptor (Homo sapiens, UniProt P28335) (assay: Test A: scintillation proximity radioligand binding assay with [3H]serotonin). Details: Receptor binding 5HT2c Ki (nM), membranes of HEK293-h5-HT2C-5 cells; [3H]serotonin final 4 nM; IC50 converted by Cheng-Prusoff, Kd 7 nM.
T1 construct: expressed in transfected cells; host or cells: HEK293 (HEK293-h5-HT2C-5 cell line), membranes
T1 sequence (P28335 33-458): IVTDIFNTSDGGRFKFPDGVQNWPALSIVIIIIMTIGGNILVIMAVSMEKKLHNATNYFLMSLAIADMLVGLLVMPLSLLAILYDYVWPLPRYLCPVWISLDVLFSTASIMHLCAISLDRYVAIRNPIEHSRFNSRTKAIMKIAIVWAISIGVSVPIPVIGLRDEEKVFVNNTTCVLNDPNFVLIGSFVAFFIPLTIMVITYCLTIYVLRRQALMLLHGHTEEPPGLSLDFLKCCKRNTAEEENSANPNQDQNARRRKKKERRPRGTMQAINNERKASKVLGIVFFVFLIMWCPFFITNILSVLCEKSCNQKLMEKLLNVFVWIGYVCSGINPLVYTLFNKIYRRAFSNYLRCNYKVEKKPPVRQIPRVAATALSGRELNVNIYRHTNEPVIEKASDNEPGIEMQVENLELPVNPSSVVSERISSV
Protocol: The gene was inserted into expression vectors containing resistance genes as selectable markers. […] The receptor was used under license from D. J. Julius at Columbia University.
The HEK293-h5-HT2C-5 cell line was seeded from frozen stocks into DMEM high glucose salts medium supplemented with sodium pyruvate, Penicillin/Streptomycin solution, G418 (0.25 g/L), hygromycin B ([…]), and Fetal Bovine Serum (3%). […] At approximately 90% confluency, the cells were rinsed with ice-cold PBS and scraped from the NUNC plates using 3M squeegees. The cells were broken with a VirTishear homogenizer. The remaining particulate matter was removed by low-speed centrifugation. Finally, the membranes were concentrated by high-speed centrifugation and resuspended in binding buffer, 50 mM TRIS, 5 mM MgCl2, pH 7.4. The preparation was held in a water-ice slurry while a pilot binding assay was performed (1.5 hours), and then quick-frozen in aliquots appropriate for 1 tube for each 96-well assay plate.
Assays were performed in Wallac microtitre PET plates designed for the Wallac microBeta LSC. Binding reactions contained test compound (11 μl), [^3H]serotonin (124 Ci/mmol, 11 μl for final 4 nM) and bead-membrane mixture (178 μl). The test compound was replaced by water to determine total binding, or by mianserin (5 μM) to define non-specific binding.
The bead-membrane mixture was made by adding 100 mg Wheatgerm Agglutinin SPA beads (Amersham) and membrane preparation (2-5 mg protein) in a total of 8 ml binding buffer for each 96-well assay plate. The mixture was stirred gently for 30 minutes at room temperature, followed by centrifugation (1000 RPM, Beckman Accuspin FR) for 10 minutes. The supernatant, containing excess membrane, was aspirated, and the beads resuspended in 18.5 ml binding buffer for each assay plate. The washed bead-membrane mix was then poured into a reagent reservoir. The mixture was pipetted into the assay plate with a multi-channel pipetter, maintaining constant stirring during pipetting.
After the reactions were complete, the plates were sealed with plastic tape and placed on a gyrotory shaker (150 rpm) for 5 minutes. After shaking, room temperature incubation continued for 2 hours. Finally, the plates were loaded into counting cassettes and counted with the Wallac microBeta LSC.
Eleven half-log serial dilutions of test compounds were made in water using the PE/Cetus Pro/Pette pipetter. These dilutions were distributed to assay plates using the same instrument, followed by radioligand and the bead-membrane mixture prepared as described above. The specifically bound cpm obtained were fit to a one-site binding model using GraphPad Prism ver. 2.0.
In the case of `c1cc2c3c(c1)c1c(n3CC2)CCNCC1` [Example 14, 4,5,8,9,10,11-hexahydro-7H-azepino[4,5-b]pyrrolo[3,2,1-hi]indole hydrochloride], the Ki is reported as 28 nM. `CC1CCn2c3c(c4cccc1c42)CCNCC3` (stereo not drawn) [Example 7, 4-methyl-5,6,9,10,11,12-hexahydro-4H,8H-azepino[4′,5′:4,5]pyrrolo[3,2,1-ij]quinoline hydrochloride] was tested, and the Ki was 77 nM. In the case of `Fc1cc2c3c(c1)c1c(n3CC2)CCNCC1` [Example 15, 2-fluoro-4,5,8,9,10,11-hexahydro-7H-azepino[4,5-b]pyrrolo[3,2,1-hi]indole hydrochloride], the Ki is reported as 24 nM. With `CC1CCn2c3c(c4cccc1c42)CCNCC3` (single isomer, unassigned; (+)) [Example 12, (+)-4-methyl-5,6,9,10,11,12-hexahydro-4H,8H-azepino[4′,5′:4,5]pyrrolo[3,2,1-ij]quinoline hydrochloride] the Ki was 41 nM. `Cc1cc2c3c(c1)c1c(n3CCO2)CCNCC1` [Example 24, 5-methyl-1,2,8,9,10,11-hexahydro-7H-azepino[4,5-b][1,4]oxazino[2,3,4-hi]indole hydrochloride] was tested, and the Ki was 29 nM. `COc1ccc2c3c1c1c(n3CCC2)CCNCC1` [Example 3, 1-methoxy-5,6,9,10,11,12-hexahydro-4H,8H-azepino[4′,5′:4,5]pyrrolo[3,2,1-ij]quinoline hydrochloride] gave a Ki of 27 nM. Compound `COc1cc2c3c(c1)c1c(n3CC2)CCNCC1` [Example 16, 2-methoxy-4,5,8,9,10,11-hexahydro-7H-azepino[4,5-b]pyrrolo[3,2,1-hi]indole hydrochloride] has a Ki of 361 nM. With `CC1CCn2c3c(c4cccc1c42)CCNCC3` (single isomer, unassigned; (-)) [Example 13, (−)-4-methyl-5,6,9,10,11,12-hexahydro-4H,8H-azepino[4′,5′:4,5]pyrrolo[3,2,1-ij]quinoline hydrochloride] the Ki was 45 nM. In the case of `CC1Cc2cccc3c4c(n1c23)CCNCC4` (stereo not drawn) [Example 17, 5-methyl-4,5,8,9,10,11-hexahydro-7H-azepino[4,5-b]pyrrolo[3,2,1-hi]indole hydrochloride], the Ki is reported as 65 nM.

Same assay, conditions: membranes of HEK293-h5-HT2C-5 cells; [3H]serotonin final 4 nM; IC50 converted by Cheng-Prusoff, Kd 7 nM; read-out: Receptor binding 5HT2c Ki
Compound `CC1CCc2cccc3c4c(n1c23)CCNCC4` (single isomer, unassigned; (+)) [Example 8, (+)-6-methyl-5,6,9,10,11,12-hexahydro-4H,8H-azepino[4′,5′:4,5]pyrrolo[3,2,1-ij]quinoline hydrochloride] has a Ki of 51 nM. With `Fc1cc2c3c(c1)c1c(n3CCO2)CCNCC1` [Example 23, 5-fluoro-1,2,8,9,10,11-hexahydro-7H-azepino[4,5-b][1,4]oxazino[2,3,4-hi]indole hydrochloride] the Ki was 13 nM. With `CC1CCc2cccc3c4c(n1c23)CCNCC4` (stereo not drawn) [Example 5, 6-methyl-5,6,9,10,11,12-hexahydro-4H,8H-azepino[4′,5′:4,5]pyrrolo[3,2,1-ij]quinoline hydrochloride] the Ki was 33 nM. Compound `CC1CCc2cccc3c4c(n1c23)CCNCC4` (single isomer, unassigned; (-)) [Example 9, (−)-6-methyl-5,6,9,10,11,12-hexahydro-4H,8H-azepino[4′,5′:4,5]pyrrolo[3,2,1-ij]quinoline hydrochloride] has a Ki of 26 nM. For `CC1Cc2cccc3c4c(n(c23)C1)CCNCC4` (single isomer, unassigned; (-)) [Example 11, (−)-5-methyl-5,6,9,10,11,12-hexahydro-4H,8H-azepino[4′,5′:4,5]pyrrolo[3,2,1-ij]quinoline hydrochloride], the Ki was 96 nM. `CC1Cn2c3c(c4cccc(c42)O1)CCNCC3` (stereo not drawn) [Example 26, 2-methyl-1,2,8,9,10,11-hexahydro-7H-azepino[4,5-b][1,4]oxazino[2,3,4-hi]indole hydrochloride] showed a Ki of 29 nM. Compound `CC1Cc2cccc3c4c(n(c23)C1)CCNCC4` (single isomer, unassigned; (+)) [Example 10, (+)-5-methyl-5,6,9,10,11,12-hexahydro-4H,8H-azepino[4′,5′:4,5]pyrrolo[3,2,1-ij]quinoline hydrochloride] has a Ki of 70 nM. `Fc1ccc2c3c1c1c(n3CCO2)CCNCC1` [Example 25, 6-fluoro-1,2,8,9,10,11-hexahydro-7H-azepino[4,5-b][1,4]oxazino[2,3,4-hi]indole hydrochloride] gave a Ki of 8 nM. Compound `Fc1cc2c3c(c1)c1c(n3CCC2)CCNCC1` [Example 4, 2-fluoro-5,6,9,10,11,12-hexahydro-4H,8H-azepino[4′,5′:4,5]pyrrolo[3,2,1-ij]quinoline hydrochloride] has a Ki of 83 nM. `Cc1ccc2c3c1c1c(n3CCO2)CCNCC1` [Example 20, 6-methyl-1,2,8,9,10,11-hexahydro-7H-azepino[4,5-b][1,4]oxazino[2,3,4-hi]indole hydrochloride] was tested, and the Ki was 3.8 nM. Compound `c1cc2c3c(c1)c1c(n3CCS2)CCNCC1` [Example 27, 1,2,8,9,10,11-hexahydro-7H-azepino[4,5-b][1,4]thiazino[2,3,4-hi]indole hydrochloride] has a Ki of 5.1 nM. Compound `c1cc2c3c(c1)c1c(n3CCC2)CCNCC1` [Example 1, 5,6,9,10,11,12-hexahydro-4H,8H-azepino[4′,5′:4,5]pyrrolo[3,2,1-ij]quinoline hydrochloride] has a Ki of 13 nM. For `c1cc2c3c(c1)c1c(n3CCO2)CCNCC1` [Example 21, 1,2,8,9,10,11-hexahydro-7H-azepino[4,5-b][1,4]oxazino[2,3,4-hi]indole hydrochloride], the Ki was 16 nM. `Clc1ccc2c3c1c1c(n3CCO2)CCNCC1` [Example 22, 6-chloro-1,2,8,9,10,11-hexahydro-7H-azepino[4,5-b][1,4]oxazino[2,3,4-hi]indole hydrochloride] showed a Ki of 2.3 nM. With `CC1Cc2cccc3c4c(n(c23)C1)CCNCC4` (stereo not drawn) [Example 6, 5-methyl-5,6,9,10,11,12-hexahydro-4H,8H-azepino[4′,5′:4,5]pyrrolo[3,2,1-ij]quinoline hydrochloride] the Ki was 44 nM. For `Cc1cc2c3c(c1)c1c(n3CCC2)CCNCC1` [Example 2, 2-methyl-5,6,9,10,11,12-hexahydro-4H,8H-azepino[4′,5′:4,5]pyrrolo[3,2,1-ij]quinoline hydrochloride], the Ki was 80 nM. `CC1c2cccc3c4c(n(c23)C1C)CCNCC4` (stereo not drawn) [Example 18, 4,5-dimethyl-4,5,8,9,10,11-hexahydro-7H-azepino[4,5-b]pyrrolo[3,2,1-hi]indole hydrochloride] was tested, and the Ki was 52 nM. `c1cc2c3c(c1)c1c(n3C3CCCCC23)CCNCC1` (stereo not drawn) [Example 19, 2,3,4,5,8b,9,10,11,12,12a-decahydro-1H-azepino[4′,5′:4,5]pyrrolo[3,2,1-jk]carbazole hydrochloride] was tested, and the Ki was 144 nM.

— US6875762B2, “Tetracyclic azepinoindole compounds” (Pfizer, priority 1999, dated 2005)
